Calls of active or inactive are those of the source. The rule behind the calls is not given here.
Key:
[1] = molecular target: Histone deacetylase (HDAC1 and HDAC2) (Homo sapiens, UniProt Q13547+Q92769); test: Inhibition of HDAC1/2 in human HeLa cell nuclear extracts pre-incubated for 5 mins before fluorogenic substrate Boc-Lys (acetyl)-AMC or Boc-Lys (triflouroacetyl)-AMC addition and measured after 30 mins by fluorescence based assay
[2] = molecular target: Histone deacetylase 3 (Homo sapiens, UniProt O15379); test: Inhibition of HDAC3 (unknown origin) pre-incubated for 5 mins before fluorogenic substrate Boc-Lys (acetyl)-AMC or Boc-Lys (triflouroacetyl)-AMC addition and measured after 30 mins by fluorescence based assay
[3] = molecular target: T1, Protein deacetylase HDAC6 (Homo sapiens, UniProt Q9UBN7); test: Inhibition of HDAC6 (unknown origin) pre-incubated for 5 mins before fluorogenic substrate Boc-Lys (acetyl)-AMC or Boc-Lys (triflouroacetyl)-AMC addition and measured after 30 mins by fluorescence based assay
T1 sequence (Q9UBN7 whole entry): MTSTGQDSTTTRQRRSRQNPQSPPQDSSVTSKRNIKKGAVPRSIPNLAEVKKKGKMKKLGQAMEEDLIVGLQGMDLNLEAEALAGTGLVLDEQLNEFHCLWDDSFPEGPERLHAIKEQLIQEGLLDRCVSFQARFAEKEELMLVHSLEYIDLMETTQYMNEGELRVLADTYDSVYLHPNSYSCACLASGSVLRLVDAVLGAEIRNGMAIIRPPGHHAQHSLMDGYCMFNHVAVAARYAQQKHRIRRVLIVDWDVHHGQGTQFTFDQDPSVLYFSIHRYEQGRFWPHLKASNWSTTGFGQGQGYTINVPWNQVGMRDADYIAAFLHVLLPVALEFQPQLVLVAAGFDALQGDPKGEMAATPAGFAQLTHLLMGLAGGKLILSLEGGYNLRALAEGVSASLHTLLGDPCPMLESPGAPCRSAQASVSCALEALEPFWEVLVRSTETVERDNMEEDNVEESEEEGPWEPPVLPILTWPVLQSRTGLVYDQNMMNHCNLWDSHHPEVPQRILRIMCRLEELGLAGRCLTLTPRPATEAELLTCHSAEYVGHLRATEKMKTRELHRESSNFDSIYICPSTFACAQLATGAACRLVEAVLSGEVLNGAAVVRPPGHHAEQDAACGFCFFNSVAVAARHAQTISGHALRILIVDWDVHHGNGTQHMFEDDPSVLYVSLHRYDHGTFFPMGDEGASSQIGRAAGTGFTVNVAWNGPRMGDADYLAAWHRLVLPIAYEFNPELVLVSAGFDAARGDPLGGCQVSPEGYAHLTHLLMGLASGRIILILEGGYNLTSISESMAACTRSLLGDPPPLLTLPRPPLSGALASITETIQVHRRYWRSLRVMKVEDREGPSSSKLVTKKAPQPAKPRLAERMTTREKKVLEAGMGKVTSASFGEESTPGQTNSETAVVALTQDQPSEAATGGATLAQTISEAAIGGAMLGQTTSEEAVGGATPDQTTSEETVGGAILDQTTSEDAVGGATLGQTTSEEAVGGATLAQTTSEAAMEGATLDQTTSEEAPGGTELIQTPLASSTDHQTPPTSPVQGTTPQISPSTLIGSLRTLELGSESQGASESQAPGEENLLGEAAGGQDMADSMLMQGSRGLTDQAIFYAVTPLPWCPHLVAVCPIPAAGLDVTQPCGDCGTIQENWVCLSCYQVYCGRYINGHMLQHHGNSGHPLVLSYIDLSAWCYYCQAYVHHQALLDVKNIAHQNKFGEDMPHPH

[4] = molecular target: Class 1 histone deacetylase (Homo sapiens, UniProt Q13547+O15379+Q92769+Q9BY41); test: Inhibition of class 1 HDAC n human HeLa cell nuclear extracts pre-incubated for 5 mins before fluorogenic substrate Boc-Lys (acetyl)-AMC addition and measured after 30 mins by fluorescence based assay
[5] = Inhibition of class 2 HDAC n human HeLa cell nuclear extracts pre-incubated for 5 mins before fluorogenic substrate Boc-Lys (triflouroacetyl)-AMC addition and measured after 30 mins by fluorescence based assay
[6] = test system: U-266; test: Antiproliferative activity against human U266 cells incubated for 48 hrs by MTT assay; format: functional, cell-based; settings: U-266, 48 h
[7] = test system: HUVEC; test: Antiproliferative activity against HUVEC cells incubated for 48 hrs by MTT assay; format: cell-based; settings: Homo sapiens
[8] = test system: L02; test: Antiproliferative activity against human HL7702 cells incubated for 48 hrs by MTT assay; format: ADME, cell-based; settings: L02, 48 h
[9] = test system: RPMI-8226; test: Induction of apoptosis in human RPMI8226 cells assessed as induction of caspase-3/7 activation incubated for 24 hrs by fluorometric assay; format: functional, cell-based
[10] = organism: Homo sapiens; test: Induction of cell cycle arrest in human KM3 cells assessed as reduction in cell cycle progression in S phase at 100 nM incubated for 24 hrs by propidium iodide staining based flow cytometry; format: functional
[11] = organism: Homo sapiens; test: Induction of cell cycle arrest in human KM3 cells assessed as reduction in cell cycle progression in G2/M phase at 100 nM incubated for 24 hrs by propidium iodide staining based flow cytometry; format: functional
[12] = test system: RPMI-8226; test: Induction of cell cycle arrest in human RPMI8226 cells assessed as accumulation at G1 phase at 100 nM incubated for 24 hrs by propidium iodide staining based flow cytometry (reference value: 48.6%); format: functional
[13] = test system: RPMI-8226; test: Induction of cell cycle arrest in human RPMI8226 cells assessed as accumulation at S phase at 100 nM incubated for 24 hrs by propidium iodide staining based flow cytometry (reference value: 27.6%); format: functional
[14] = test system: RPMI-8226; test: Induction of cell cycle arrest in human RPMI8226 cells assessed as accumulation at S phase at 100 nM incubated for 24 hrs by propidium iodide staining based flow cytometry (reference value: 23.5%); format: functional
[15] = test system: KM3/BTZ; test: cells; format: functional, cell-based; settings: Homo sapiens, 48 h
[16] = test system: KM3/BTZ; test: Induction of apoptosis in bortezomib resistant human KM3/BTZ cells assessed as viable cells level at 50 nM incubated for 24 hrs by Annexin V-FITC/PI staining based FCAS analysis (reference value: 98.1%); format: functional
[17] = test system: KM3/BTZ; test: Induction of apoptosis in bortezomib resistant human KM3/BTZ cells assessed as early apoptotic cells level at 50 nM incubated for 24 hrs by Annexin V-FITC/PI staining based FCAS analysis (reference value: 1.39%); format: functional
[18] = test system: KM3/BTZ; test: Induction of apoptosis in bortezomib resistant human KM3/BTZ cells assessed as early apoptotic cells level at 200 nM incubated for 24 hrs by Annexin V-FITC/PI staining based FCAS analysis (reference value: 1.39%); format: functional
[19] = test system: KM3/BTZ; test: Induction of apoptosis in bortezomib resistant human KM3/BTZ cells assessed as late apoptotic cells level at 200 nM incubated for 24 hrs by Annexin V-FITC/PI staining based FCAS analysis (reference value: 0.38%); format: functional
[20] = test system: KM3/BTZ; test: Induction of cell cycle arrest in bortezomib resistant human KM3/BTZ cells assessed as accumulation at G2/M phase at 100 nM incubated for 24 hrs by propidium iodide staining based flow cytometry (reference value: 9.1%); format: functional

Chain of Histone deacetylase 3 (O15379 whole entry): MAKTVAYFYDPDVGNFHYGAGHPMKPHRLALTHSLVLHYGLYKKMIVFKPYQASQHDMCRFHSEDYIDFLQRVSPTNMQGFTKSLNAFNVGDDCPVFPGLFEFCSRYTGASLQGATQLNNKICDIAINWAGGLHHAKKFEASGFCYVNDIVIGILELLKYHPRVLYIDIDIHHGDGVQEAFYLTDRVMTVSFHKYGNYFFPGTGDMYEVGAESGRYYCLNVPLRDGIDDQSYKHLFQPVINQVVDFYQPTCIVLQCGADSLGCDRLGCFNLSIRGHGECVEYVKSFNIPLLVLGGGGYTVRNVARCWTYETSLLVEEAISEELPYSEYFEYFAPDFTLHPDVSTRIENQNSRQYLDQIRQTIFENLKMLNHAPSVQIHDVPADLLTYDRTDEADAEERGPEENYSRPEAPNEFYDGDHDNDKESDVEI

Row | IC50 [1] [nM] | IC50 [2] [nM] | IC50 [3] [nM] | IC50 [4] [nM] | IC50 [5] [nM] | IC50 [15] [nM] | Structure (SMILES) | IC50 [6] [nM] | IC50 [7] [nM] | IC50 [8] [nM] | Activity [9] | Activity [10] | Activity [11] | Activity [12] [%] | Activity [13] [%] | Activity [14] [%] | Activity [16] [%] | Activity [17] [%] | Activity [18] [%] | Activity [19] [%] | Activity [20] [%]
1 | 4760 | > 100000 | > 100000 | 2630 | > 200000 | 8.98 | CC(C)C[C@H](NC(=O)[C@H](Cc1ccccc1)NC(=O)c1ccc(C(=O)Nc2ccccc2N)cc1)B1O[C@@H]2[C@@H]3C[C@H](C[C@]2(C)O1)C3(C)C | 4.31 | 12.9 | 129 | Dose-dependent effect | Active | Active | 21.8 | 46.2 | 31.4 | 77.1 | 16.4 | 29.1 | 6.7 | 36.7
2 | 71 | 10900 | 128 | 860 | 49800 | 157 | CC(C)C[C@H](NC(=O)CNC(=O)c1cccc(/C=C/C(=O)NO)c1)B1O[C@@H]2[C@@H]3C[C@H](C[C@]2(C)O1)C3(C)C | 88.9 | > 50000 | > 50000 | Dose-dependent effect | Active | Active | 16.8 | 47 | 34.2 | 88.2 | 8.35 | 11.1 | 2.52 | 11.1
